Measurements: patent US20230059463A1, “3-(2-BROMO-4-ALKYNYL-6-ALKOXYPHENYL)-SUBSTITUTED 5-SPIROCYCLOHEXYL-3-PYRROLIN-2-ONES AND THEIR USE AS HERBICIDES” (Bayer Aktiengesellschaft, priority 2019, published 2023)

Key:
Assay type in all cases: in vivo
Echinochloa crus-galli [1] = test: Post-emergence herbicidal effect; conditions: 80 g/ha, post-emergence at one-leaf stage, assessed visually after about 3 weeks; 100% = plants have died, 0% = like control plants
Description: (§1) Seeds of monocotyledonous and dicotyledonous weed and crop plants are laid out in sandy loam soil in wood-fiber pots, covered with soil and cultivated in a greenhouse under good growth conditions. 2 to 3 weeks after sowing, the test plants are treated at the one-leaf stage. The compounds of the invention, formulated in the form of wettable powders (WP) or as emulsion concentrates (EC), are then sprayed onto the green parts of the plants as aqueous suspension or emulsion at a water application rate equating to 600 to 800 l/ha with addition of 0.2% wetting agent. After the test plants have been left to stand in the greenhouse under optimal growth conditions for about 3 weeks, the action of the preparations is assessed visually in comparison to untreated controls (herbicidal action in per cent (%): 100% activity=the plants have died, 0% activity=like control plants).

Digitaria sanguinalis = test: Post-emergence herbicidal effect; conditions: 80 g/ha, post-emergence at one-leaf stage, assessed visually after about 3 weeks; 100% = plants have died, 0% = like control plants
Description: as §1

Lolium rigidum [2] = test: Post-emergence herbicidal effect; conditions: 80 g/ha, post-emergence at one-leaf stage, assessed visually after about 3 weeks; 100% = plants have died, 0% = like control plants
Description: as §1

Setaria viridis [3] = test: Post-emergence herbicidal effect; conditions: 80 g/ha, post-emergence at one-leaf stage, assessed visually after about 3 weeks; 100% = plants have died, 0% = like control plants
Description: as §1

Hordeum murinum [4] = test: Post-emergence herbicidal effect; conditions: 80 g/ha, post-emergence at one-leaf stage, assessed visually after about 3 weeks; 100% = plants have died, 0% = like control plants
Description: as §1

Alopecurus myosuroides [5] = test: Post-emergence herbicidal effect; conditions: 80 g/ha, post-emergence at one-leaf stage, assessed visually after about 3 weeks; 100% = plants have died, 0% = like control plants
Description: as §1

Echinochloa crus-galli [6] = test: Pre-emergence herbicidal effect; conditions: 80 g/ha, scored visually after 3 weeks, 100% = plants have died, 0% = like control plants
Description: (§2) Seeds of monocotyledonous and dicotyledonous weed plants and crop plants are laid out in sandy loam soil in wood-fiber pots and covered with soil. The compounds of the invention, formulated in the form of wettable powders (WP) or as emulsion concentrates (EC), are then applied to the surface of the covering soil as aqueous suspension or emulsion at a water application rate equating to 600 to 800 L/ha with addition of 0.2% wetting agent.
(§3) After the treatment, the pots are placed in a greenhouse and kept under good growth conditions for the trial plants. The damage to the test plants is scored visually after a test period of 3 weeks by comparison with untreated controls (herbicidal activity in percent (%): 100% activity=the plants have died, 0% activity=like control plants).

Lolium rigidum [7] = test: Pre-emergence herbicidal effect; conditions: 80 g/ha, scored visually after 3 weeks, 100% = plants have died, 0% = like control plants
Description: as §2, §3

Setaria viridis [8] = test: Pre-emergence herbicidal effect; conditions: 80 g/ha, scored visually after 3 weeks, 100% = plants have died, 0% = like control plants
Description: as §2, §3

Avena fatua = test: Pre-emergence herbicidal effect; conditions: 80 g/ha, scored visually after 3 weeks, 100% = plants have died, 0% = like control plants
Description: as §2, §3

Hordeum murinum [9] = test: Pre-emergence herbicidal effect; conditions: 80 g/ha, scored visually after 3 weeks, 100% = plants have died, 0% = like control plants
Description: as §2, §3

Alopecurus myosuroides [10] = test: Pre-emergence herbicidal effect; conditions: 80 g/ha, scored visually after 3 weeks, 100% = plants have died, 0% = like control plants
Description: as §2, §3

| SMILES | Post-emergence action against ECHCG (herbicidal action in per cent) (Echinochloa crus-galli [1]) [%] | Post-emergence action against DIGSA (herbicidal action in per cent) (Digitaria sanguinalis) [%] | Post-emergence action against LOLRI (herbicidal action in per cent) (Lolium rigidum [2]) [%] | Post-emergence action against SETVI (herbicidal action in per cent) (Setaria viridis [3]) [%] | Post-emergence action against HORMU (herbicidal action in per cent) (Hordeum murinum [4]) [%] | Post-emergence action against ALOMY (herbicidal action in per cent) (Alopecurus myosuroides [5]) [%] | Pre-emergence action against ECHCG (herbicidal activity in percent) (Echinochloa crus-galli [6]) [%] | Pre-emergence action against LOLRI (herbicidal activity in percent) (Lolium rigidum [7]) [%] | Pre-emergence action against SETVI (herbicidal activity in percent) (Setaria viridis [8]) [%] | Pre-emergence action against AVEFA (herbicidal activity in percent) (Avena fatua) [%] | Pre-emergence action against HORMU (herbicidal activity in percent) (Hordeum murinum [9]) [%] | Pre-emergence action against ALOMY (herbicidal activity in percent) (Alopecurus myosuroides [10]) [%] |
| --- | --- | --- | --- | --- | --- | --- | --- | --- | --- | --- | --- | --- |
| C#Cc1cc(Br)c(C2=C(O)C3(CCCC(OCCC)C3)NC2=O)c(OC)c1 (centres unmarked) [Example 1.1.01] | 100 | 90 | 90 | 100 | 80 | 90 | 100 | 100 | 100 | 100 | 90 | 90 |
| C#Cc1cc(Br)c(C2=C([O-])C3(CCCC(OCCC)C3)NC2=O)c(OC)c1.[Na+] (centres unmarked) [Example 1.1.02] | 100 | 100 | 100 | 100 | 100 | 100 | 100 | 100 | 100 | 100 | 100 | 100 |
| C#Cc1cc(Br)c(C2=C([O-])C3(CCCC(OCCOC)C3)NC2=O)c(OC)c1.[Na+] (centres unmarked) [Example 1.1.06] | 100 | 100 | 100 | 90 | 90 | 100 | 100 | 100 | 100 | 100 | 100 | 100 |
| CC#Cc1cc(Br)c(C2=C(O)C3(CCCC(OCCOC)C3)NC2=O)c(OC)c1 (centres unmarked) [Example 1.1.13] | 100 | – | 100 | 100 | 100 | 100 | 100 | 100 | 100 | 100 | 100 | 100 |
| CC#Cc1cc(Br)c(C2=C([O-])C3(CCCC(OCCOC)C3)NC2=O)c(OC)c1.[Na+] (centres unmarked) [Example 1.1.14] | 90 | – | 90 | 90 | 80 | 80 | 100 | 100 | 100 | 100 | 100 | 100 |
| CC#Cc1cc(Br)c(C2=C(OC(=O)OCC)C3(CCCC(OCCOC)C3)NC2=O)c(OC)c1 (centres unmarked) [Example 1.1.15] | 100 | – | 100 | 100 | 100 | 100 | 100 | 100 | 100 | 100 | 100 | 100 |
| CC#Cc1cc(Br)c(C2=C(OC(=O)C(C)C)C3(CCCC(OCCOC)C3)NC2=O)c(OC)c1 (centres unmarked) [Example 1.1.16] | 100 | – | 100 | 100 | 100 | 100 | 100 | 100 | 100 | 100 | 100 | 100 |
| CC#Cc1cc(Br)c(C2=C(O)C3(CCCC(OCCOC)C3)NC2=O)c(OCC)c1 (centres unmarked) [Example 1.1.17] | 100 | 100 | 100 | 100 | 100 | 100 | – | – | – | – | – | – |
| CC#Cc1cc(Br)c(C2=C([O-])C3(CCCC(OCCOC)C3)NC2=O)c(OCC)c1.[Na+] (centres unmarked) [Example 1.1.18] | 100 | 100 | 100 | 100 | 100 | 100 | – | – | – | – | – | – |
| CC#Cc1cc(Br)c(C2=C(OC(=O)OCC)C3(CCCC(OCCOC)C3)NC2=O)c(OCC)c1 (centres unmarked) [Example 1.1.19] | 100 | 100 | 100 | 100 | 100 | 100 | – | – | – | – | – | – |
